pIC50: −log10 of the molar value. Like-named read-outs stand apart in the source and are kept apart here. Strand notation (5' to 3'): a small letter for the sugar, then the base; units joined by * are phosphorothioate-linked, units joined directly phosphodiester-linked; [ ] holds rarer units or linkages, { } end groups; capitals alone tell only the bases. r = 2'-OH (RNA)
Key:
[1] = molecular target: T1, recombinant HIV-1 RT L100I (Human immunodeficiency virus type 1 group M subtype B, UniProt P03366, L699I); test: RT assay: inhibition of RNA dependent DNA polymerisation (modified Lenti RT assay); type: biochemical; conditions: read-out: IC50 of indicated inhibitor in RT assay
T1 construct: performed by recombinant HIV-1 RT:s with defined
Protocol: (§1) The flourimetric RT assay (Cavidi® Lenti RT activity kit), available from Cavidi Tech, Uppsala, Sweden, was used for the determination of RT activity. In short, poly(rA) covalently bound to the wells of a 96 well microtiter plate serves as template for the incorporation of 5-bromodeoxyuridine 5′-triphosphate (BrdUTP) during the reverse transcription step at 33° C. The amount of bromodeoxyuridine monophosphate (BrdUMP) incorporated into DNA is detected with an alkaline phosphatase (Ap) conjugated, anti-BrdU monoclonal antibody. An Ap substrate, 4-methylumbelliferyl phosphate, is finally used for fluorimetric product detection.
(§2) (i) Protocol for determination of inhibition of RNA dependent DNA polymerisation: The inhibition studies were performed in a modified Lenti RT assay. […] The enzyme reaction was initiated by addition of 100 μl aliquots of the enzyme/inhibitor mixture to each well of a microtiter plate containing 100 μl RT reaction mixture per well. The polymerase reaction was allowed to proceed for 3 hours at 33° C., whereupon the reaction was terminated by a wash of the plate. […] The amount of RT used was standardised to an activity corresponding to 90-130 pg (7-10×10^−16 mol) reference HIV-1 RT per well
(§3) The capacity of the indicated substances to inhibit the enzymes in a panel of recombinant HIV 1 subtype B RTs was studied according to “Protocol for determination of inhibition of RNA dependent DNA polymerisation” (protocol (i) above). The final nucleotide substrate (BrdUTP) concentration was 0.35 μM, and the primer (odT22) amount was 0.03 ng per well.

[2] = molecular target: T2, recombinant HIV-1 RT K103N/E478Q (Human immunodeficiency virus type 1 group M subtype B, UniProt P03366, E1077Q/K702N); test: as above; type: biochemical; conditions: read-out: IC50 of indicated inhibitor in RT assay
T2 construct: performed by recombinant HIV-1 RT:s with defined
Protocol: as §1, §2, §3

[3] = molecular target: T3, recombinant HIV-1 RT T215Y (Human immunodeficiency virus type 1 group M subtype B, UniProt P03366, T814Y); test: as above; type: biochemical; conditions: read-out: IC50 of indicated inhibitor in RT assay
T3 construct: performed by recombinant HIV-1 RT:s with defined
Protocol: as §1, §2, §3

[4] = molecular target: T4, recombinant HIV-1 RT, ref RT (HIV type B, clone BH 10) (Human immunodeficiency virus type 1 group M subtype B, UniProt P03366); parameters: performed by recombinant HIV-1 RT:s with defined; conditions: immobilised primer/template, binding 90 min at 33° C., read-out: Inhibition of binding to template/primer (BIC50)
Protocol: (iii) Protocol for RT binding inhibition (BIC) assay: The study was performed in a modified DNA polymerase assay. The inhibitors were serially diluted in five steps, enzyme dilution was added and the enzyme/inhibitor mixtures were incubated for 30 minutes at 33° C. Aliquots of the enzyme/inhibitor mixture were transferred to each well of a microtiter plate containing either immobilised primer, or primer/template. The enzyme was allowed to bind to the immobilised polymer for 90 min at 33° C. The amount of RT used was standardised to an activity corresponding to 40-60 pg (3.3-5.0×10^−16 mol) reference HIV-1 RT per well. The plates were then washed to remove unbound enzyme whereupon the amount of bound enzyme was determined by addition of the appropriate reaction solution for polymerisation (i e a reaction solution devoid of primer for studies of primer binding and a reaction solution devoid of both primer and template for studies of binding to primed template). The polymerase reaction was allowed to proceed for 3 hours at 33° C., whereupon the reaction was terminated by a wash of the plate.
The capacity of the indicated substances to inhibit the binding to primer or to primed DNA template of a panel of recombinant HIV 1 subtype B RTs was studied according to “Protocol for RT binding inhibition (BIC) assay” (protocol (iii) above).

[5] = molecular target: T4, recombinant HIV-1 RT, ref RT (HIV type B, clone BH 10); type: biochemical; parameters: performed by recombinant HIV-1 RT:s with defined; conditions: second strand DNA synthesis, preincubation 30 minutes at 33° C., 3 hours, read-out: IC50 of indicated inhibitor in DNAp assay
From the text: The flourimetric DNA-polymerase assay used is available from Cavidi Tech AB, Uppsala, Sweden. It is based on a short DNA primer analogous to a part of the tRNA^Lys3 sequence. The template is a single stranded deoxynucleotide template with part of the sequence complementary to the primer. The enzyme reaction is dependent on all four deoxynucleotide bases. The thymidine triphosphate is, however, replaced by BrdUTP. The amount of BrdUMP incorporated into DNA during the polymerase reaction is detected with an alkaline phosphatase (Ap) conjugated anti-BrdU monoclonal antibody. An Ap substrate, 4-methylumbelliferyl phosphate, is finally used for fluorimetric product detection.
(ii) Protocol for determination of inhibition of second strand synthesis on a variable DNA template: The inhibition studies were performed in a modified DNA polymerase assay. The inhibitors were serially diluted in five steps, enzyme dilution was added and the enzyme/inhibitor mixtures were incubated for 30 minutes at 33° C. The enzyme reaction was initiated by addition of 75 μl aliquots of the enzyme/inhibitor mixture to each well of a microtiter plate containing 75 μl DNA polymerase reaction mixture per well. The polymerase reaction was allowed to proceed for 3 hours at 33° C. whereupon the reaction was terminated by a wash of the plate. […]

[6] = molecular target: T5, recombinant HIV-1 RT L100I/K103N (Human immunodeficiency virus type 1 group M subtype B, UniProt P03366, K702N/L699I); test: RT assay: inhibition of RNA dependent DNA polymerisation (modified Lenti RT assay); type: biochemical; conditions: enzyme/inhibitor preincubated 30 minutes at 33° C., BrdUTP 0.35 μM, odT22 0.03 ng per well, 3 hours, read-out: IC50 of indicated inhibitor in RT assay
T5 construct: performed by recombinant HIV-1 RT:s with defined
Protocol: as §1
(i) Protocol for determination of inhibition of RNA dependent DNA polymerisation: The inhibition studies were performed in a modified Lenti RT assay. The inhibitors were serially diluted in five steps, whereupon enzyme dilution was added and the enzyme/inhibitor mixtures were incubated for 30 minutes at 33° C. The enzyme reaction was initiated by addition of 100 μl aliquots of the enzyme/inhibitor mixture to each well of a microtiter plate containing 100 μl RT reaction mixture per well. The polymerase reaction was allowed to proceed for 3 hours at 33° C., whereupon the reaction was terminated by a wash of the plate. […] The amount of RT used was standardised to an activity corresponding to 90-130 pg (7-10×10^−16 mol) reference HIV-1 RT per well […]

[7] = enzyme/inhibitor preincubated 30 minutes at 33° C., BrdUTP 0.35 μM, odT22 0.03 ng per well, 3 hours
[8] = RT and inhibitor added directly to the assay mixture without preincubation

Row | Substance | pIC50 [1, 7] | pIC50 [2, 7] | pIC50 [3, 7] | pIC50 [4] | pIC50 [5] | pIC50 [6] | pIC50 [1, 8] | pIC50 [2, 8] | pIC50 [3, 8]
1 | substance 198: 15-mer RNA phosphorothioate with the base sequence of tRNALys3 anticodon stem and loop, SEQ ID NO:7 (rC*rA*rG*rA*rC*rU*rU*rU*rU*rA*rA*rU*rC*rU*rG) [reference compound] | 6.35 | 5.96 | 6.47 | 6.05 | 6.26 | 6.05 | – | – | –
2 | substance 199: 35-mer RNA molecule having the sequence set out in SEQ ID NO:5; similar to SEQ ID NO:4 with some naturally occurring nucleotide derivatives (GCUCAGNCGGNAGAGCANCAGACUUUUAANCUGAN; RNA, backbone, methylation of C and the base at N not given here; naturally occurring modified nucleosides at n positions) | 8.00 | 8.00 | 7.96 | 8.15 | 7.40 | 7.92 | 8.13 | 8.01 | 8.03

Source: US20040053872A1, “New sequences” (priority 2000, published 2004)
